Assay results from patent publication US11214803B2, “Modulators of YAP1 expression” (Ionis Pharmaceuticals, Inc., priority 2019, dated 2022).
Strand notation (5' to 3'): a small letter for the sugar, then the base; units joined by * are phosphorothioate-linked, units joined directly phosphodiester-linked; [ ] holds rarer units or linkages, { } end groups; capitals alone tell only the bases. e = 2'-O-(2-methoxyethyl) (MOE); k = constrained ethyl (cEt); [5mC] = 5-methylcytosine; d = 2'-deoxy (DNA); m = 2'-O-methyl

Tests used:
Type in all cases: cell-based
[1] = test system: Yap1 mRNA; assay: Dose-dependent inhibition of human Yap1 in SNU-449 cells (Example 9, RTS36584); details: free uptake; for % UTC (Yap1 mRNA): approximately 48 hours; for IC50: linear regression on a log/linear plot
Method: Modified oligonucleotides described in the studies above were tested at various doses in SNU-449 cells. Cultured SNU-449 cells at a density of 10,000 cells per well were treated using free uptake with modified oligonucleotides diluted to concentrations described in the tables below. After approximately 48 hours, Yap1 mRNA levels were measured as previously described using the Human Yap1 primer-probe set RTS36584. Yap1 mRNA levels were normalized to total RNA content, as measured by RIBOGREEN®. Results are presented in the tables below as percent control of the amount of Yap1 mRNA relative to untreated control cells (% UTC). IC50s were calculated using a linear regression on a log/linear plot of the data in excel.

[2] = test system: Yap1 mRNA; assay: Antisense inhibition of human Yap1 in SNU-449 cells by modified oligonucleotides, single dose (Example 5, RTS36584)
How it was run: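 Plate SNU-449 cells at 10,000 per well; add 2,000 nM modified oligonucleotide without transfection reagent; after ~48 h isolate RNA, run qRT-PCR with RTS36584, normalise to RIBOGREEN and report % UTC.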

[3] = test system: Yap1 mRNA; assay: Antisense inhibition of human Yap1 in A-431 cells by cEt gapmers, single dose (Example 3, RTS36584)
How it was run: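 Single-dose free-uptake screen of 3-10-3 cEt gapmers in A-431 cells at 2,000 nM over about 48 h. Values are % untreated control Yap1 mRNA.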

[4] = test system: Yap1 mRNA; assay: Dose-dependent inhibition of human Yap1 in A-431 cells (Example 8, 10,000 cells per well, RTS4814); details: for Yap1 mRNA, % UTC: A-431 cells, 10,000 cells per well; for IC50 / % UTC (Yap1 mRNA): A-431 cells
How it was run: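 A-431 cells (10,000/well) dosed with modified oligonucleotides by free uptake; Yap1 mRNA measured ~48 h later with primer-probe set RTS4814, normalized to total RNA (RIBOGREEN). Values are % of untreated control; IC50 from linear regression on log/linear plot.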

[5] = Yap1 mRNA, percent of untreated control, modified oligonucleotides targeting SEQ ID NO: 1 and 2, Table 47
[6] = Table 29, Yap1 mRNA as percent of untreated control, 3-10-3 cEt gapmers targeting SEQ ID NO.: 1, and 2
[7] = 31.3 nM, free uptake, approximately 48 hours, RTS4814
[8] = 125.0 nM, free uptake, approximately 48 hours, RTS4814
[9] = 500.0 nM, free uptake, approximately 48 hours, RTS4814
[10] = 2000.00 nM, free uptake, approximately 48 hours, RTS4814
[11] = free uptake, approximately 48 hours, RTS4814, linear regression on log/linear plot
[12] = Table 13, A-431 cells, 5,000 cells per well, free uptake, 2,000 nM modified oligonucleotide, approx. 48 hours, RTS36584, normalized to RIBOGREEN, Yap1 mRNA relative to untreated control cells
[13] = Table 35, Yap1 mRNA as percent of untreated control, 3-10-3 cEt gapmers targeting SEQ ID NO: 1 and 2, single dose
[14] = Table 28, Yap1 mRNA as percent of untreated control, 3-10-3 cEt gapmers targeting SEQ ID NO.: 1, and 2

| Substance | Yap1 mRNA, % UTC [4, 7] [% UTC] | Yap1 mRNA, % UTC [4, 8] [% UTC] | Yap1 mRNA, % UTC [4, 9] [% UTC] | Yap1 mRNA, % UTC [4, 10] [% UTC] | IC50 [4, 11] [µM] | also measured |
| --- | --- | --- | --- | --- | --- | --- |
| 1198290 (kT*kG*kG*dA*dA*dA*dT*dT*dG*dT*d[5mC]*dT*k[5mC]*eA*kT*eG; antisense) [compound 1198290] |  |  |  |  |  | % UTC (Yap1 mRNA) ([1]; 31.3 nM): 60 % UTC; % UTC (Yap1 mRNA) ([1]; 125.0 nM): 39 % UTC; % UTC (Yap1 mRNA) ([1]; 500.0 nM): 20 % UTC; % UTC (Yap1 mRNA) ([1]; 2000.00 nM): 10 % UTC; IC50 [1]: 0.1 µM |
| 1200861 (kT*kT*kA*dA*dA*mG*dT*dG*dT*dA*dT*dG*dT*k[5mC]*kA*kG; antisense) [compound 1200861] |  |  |  |  |  | % UTC (Yap1 mRNA) ([1]; 31.3 nM): 74 % UTC; % UTC (Yap1 mRNA) ([1]; 125.0 nM): 43 % UTC; % UTC (Yap1 mRNA) ([1]; 500.0 nM): 17 % UTC; % UTC (Yap1 mRNA) ([1]; 2000.00 nM): 4 % UTC; IC50 [1]: 0.1 µM |
| 1198698 (kA*kA*dG*dT*dG*dT*dA*dT*dG*dT*d[5mC]*dA*kG*eA*kA*eG) [compound 1198698] |  |  |  |  |  | % UTC (Yap1 mRNA) ([1]; 31.3 nM): 55 % UTC; % UTC (Yap1 mRNA) ([1]; 125.0 nM): 29 % UTC; % UTC (Yap1 mRNA) ([1]; 500.0 nM): 8 % UTC; % UTC (Yap1 mRNA) ([1]; 2000.00 nM): 2 % UTC; IC50 [1]: 0.03 µM |
| 1198285 (kA*kT*kT*dG*dT*d[5mC]*dT*d[5mC]*dA*dT*dG*d[5mC]*k[5mC]*eT*kT*eA; antisense) [compound 1198285] |  |  |  |  |  | % UTC (Yap1 mRNA) ([1]; 31.3 nM): 67 % UTC; % UTC (Yap1 mRNA) ([1]; 125.0 nM): 41 % UTC; % UTC (Yap1 mRNA) ([1]; 500.0 nM): 16 % UTC; % UTC (Yap1 mRNA) ([1]; 2000.00 nM): 5 % UTC; IC50 [1]: 0.1 µM |
| 958497 (kA*kT*kA*dT*dG*dG*dA*dA*dA*dT*dT*dG*dT*k[5mC]*kT*k[5mC]) [Compound 958497] |  |  |  |  |  | YAP1 (% UT) [2, 5]: 20 % UT; YAP1 (% UTC) ([3]; Table 10, A-431 cells, 5,000 cells per well, free uptake, 2,000 nM oligonucleotide, approx. 48 hours, primer probe set RTS36584, Yap1 mRNA normalized to RIBOGREEN, percent of untreated control): 1 % UTC |
| 1076527 (kG*k[5mC]*kA*d[5mC]*dA*dA*d[5mC]*d[5mC]*dT*dT*dA*d[5mC]*dA*kT*kT*kT; antisense) [compound 1076527] | 81 | 41 | 16 | 8 | 0.1 | YAP1 (% UTC) [3, 6]: 6 % UTC |
| 1076556 (kG*kT*kA*dT*dA*dG*dG*d[5mC]*dA*dG*dA*dA*dG*k[5mC]*kA*kA; antisense) [compound 1076556] | 72 | 46 | 19 | 11 | 0.1 | YAP1 (% UTC) ([3]; Table 26, Yap1 mRNA by 3-10-3 cEt gapmers targeting SEQ ID NO.: 1, and 2, percent of untreated control): 9 % UTC |
| 958590 (kA*kG*kG*dT*dA*dT*dA*dA*d[5mC]*dT*dG*dG*dG*k[5mC]*kA*kA) [Compound 958590] |  |  |  |  |  | YAP1 (% UT) ([2]; Table 48, Yap1 mRNA level relative to untreated control, modified oligonucleotides targeting SEQ ID NO.: 1 and 2): 18 % UT; YAP1 (% UTC) [3, 12]: 2 % UTC |
| 958500 (kT*k[5mC]*kT*dA*dT*dA*dT*dT*dA*dG*dA*dG*dT*kA*kT*kG) [Compound 958500] |  |  |  |  |  | YAP1 (% UT) [2, 5]: 53 % UT; YAP1 (% UTC) [3, 12]: 5 % UTC |
| 1074445 (kT*kG*kA*dT*dA*dG*d[5mC]*dA*d[5mC]*dT*dA*dG*dG*kA*kG*kG; antisense) [compound 1074445] | 57 | 19 | 8 | 6 | < 0.02 | YAP1 (% UTC) ([3]; Table 27, Yap1 mRNA by 3-10-3 cEt gapmers targeting SEQ ID NO.: 1, and 2, percent of untreated control): 6 % UTC |
| 1074549 (DNA kT*kA*kT*d[5mC]*dT*dA*d[5mC]*d[5mC]*dG*dT*dA*dT*dG*k[5mC]*k[5mC]*k[5mC]; antisense) [compound 1074549] |  |  |  |  |  | YAP1 (% UTC) [3, 13]: 6 % UTC; % UTC (Yap1 mRNA) ([4]; 31.3 nM): 67 % UTC; % UTC (Yap1 mRNA) ([4]; 125.0 nM): 31 % UTC; % UTC (Yap1 mRNA) ([4]; 500.0 nM): 12 % UTC; % UTC (Yap1 mRNA) ([4]; 2000.00 nM): 7 % UTC; IC50 ([4]; Yap1 mRNA): 0.1 µM |
| 1076430 (k[5mC]*kG*kT*dT*dA*dT*dA*dA*dG*dA*dT*dG*dT*kG*k[5mC]*kT; antisense) [compound 1076430] | 42 | 14 | 6 | 4 | < 0.02 | YAP1 (% UTC) [3, 14]: 4 % UTC |
| 1074453 (kG*kT*kG*dA*d[5mC]*dT*dA*dA*dT*dG*dA*dT*dA*kG*k[5mC]*kA; antisense) [compound 1074453] |  |  |  |  |  | YAP1 (% UTC) [3, 13]: 4 % UTC; % UTC (Yap1 mRNA) ([4]; 31.3 nM): 51 % UTC; % UTC (Yap1 mRNA) ([4]; 125.0 nM): 18 % UTC; % UTC (Yap1 mRNA) ([4]; 500.0 nM): 9 % UTC; % UTC (Yap1 mRNA) ([4]; 2000.00 nM): 5 % UTC; IC50 ([4]; Yap1 mRNA): < 0.02 µM |
| 1076494 (k[5mC]*kT*kA*dA*dT*dT*dG*dA*dA*dG*d[5mC]*dT*dG*kG*k[5mC]*kA; antisense) [compound 1076494] | 34 | 7 | 3 | 2 | < 0.02 | YAP1 (% UTC) [3, 14]: 3 % UTC |
| 1074421 (kT*kG*kA*dT*dT*d[5mC]*dT*dT*dT*dA*dG*dA*dG*k[5mC]*k[5mC]*kA; antisense) [compound 1074421] |  |  |  |  |  | YAP1 (% UTC) [3, 13]: 3 % UTC; % UTC (Yap1 mRNA) ([4]; 31.3 nM): 61 % UTC; % UTC (Yap1 mRNA) ([4]; 125.0 nM): 29 % UTC; % UTC (Yap1 mRNA) ([4]; 500.0 nM): 8 % UTC; % UTC (Yap1 mRNA) ([4]; 2000.00 nM): 5 % UTC; IC50 ([4]; Yap1 mRNA): 0.04 µM |
| 1074351 (antisense kA*kT*kG*d[5mC]*dT*dT*dA*dG*dT*d[5mC]*d[5mC]*dA*d[5mC]*kT*kG*kT) [compound 1074351] | 69 | 33 | 13 | 7 | 0.1 | YAP1 (% UTC) [3, 6]: 7 % UTC |
| 1076143 (kG*kA*kT*dA*d[5mC]*dG*dA*dA*dA*dA*dA*dA*dG*k[5mC]*k[5mC]*kA; antisense) [compound 1076143] | 81 | 48 | 20 | 9 | 0.1 | YAP1 (% UTC) [3, 6]: 8 % UTC |
| 1075118 (k[5mC]*kT*kA*dT*dT*dT*dA*d[5mC]*dT*d[5mC]*dT*dG*dT*k[5mC]*kA*k[5mC]; antisense) [compound 1075118] | 85 | 36 | 8 | 4 | 0.1 | YAP1 (% UTC) [3, 14]: 4 % UTC |
| 1076367 (antisense k[5mC]*kT*kA*dT*dT*dT*dA*d[5mC]*dA*dT*dG*dA*dG*kA*kG*kG) [compound 1076367] | 31 | 10 | 4 | 3 | < 0.02 | YAP1 (% UTC) [3, 6]: 3 % UTC |
| 1076366 (antisense kA*kT*kT*dT*dA*d[5mC]*dA*dT*dG*dA*dG*dA*dG*kG*kA*kG) [compound 1076366] | 63 | 25 | 8 | 4 | 0.04 | YAP1 (% UTC) [3, 14]: 4 % UTC |
| 1075855 (antisense kG*kA*kT*dT*dT*dT*dT*dA*dG*dG*d[5mC]*dA*dG*kA*k[5mC]*kG) [compound 1075855] | 65 | 30 | 12 | 8 | 0.1 | YAP1 (% UTC) [3, 6]: 7 % UTC |
| 1074420 (kG*kA*kT*dT*d[5mC]*dT*dT*dT*dA*dG*dA*dG*d[5mC]*k[5mC]*kA*kA; antisense) [compound 1074420] | 38 | 8 | 3 | 2 | < 0.02 | YAP1 (% UTC) ([3]; Table 34, Yap1 mRNA as percent of untreated control, 3-10-3 cEt gapmers targeting SEQ ID NO: 1 and 2, single dose): 2 % UTC |
